# Laboratory results: patent publication US7332501B2, “Indol-3-yl-carbonyl-spiro-piperidine derivatives as V1a receptor antagonists” (Hoffmann-La Roche Inc., priority 2005, dated 2008)
# Target: T1, human V1a receptor (Homo sapiens, UniProt P37288)
# T1 construct: expressed in transfected cells; host or cells: HEK293 cells, transiently transfected; cell membranes
# Assay: human V1a receptor binding (3H-Vasopressin SPA, HEK293 membranes)
# Details: displacement of 4 nM 3H-Vasopressin, membranes of HEK293 cells transiently transfected with human V1a receptor; Ki from IC50 by Cheng-Prussoff
# Method: The human V1a receptor was cloned by RT-PCR from total human liver RNA. The coding sequence was subcloned in an expression vector after sequencing to confirm the identity of the amplified sequence. […] Cell membranes were prepared from HEK293 cells transiently transfected with the expression vector and grown in 20 liter fermenters with the following protocol.
# 50 g cells are resuspended in 30 ml freshly prepared ice cold Lysis buffer (50 mM HEPES, 1 mM EDTA, 10 mM MgCl2 adjusted to pH=7.4+complete cocktail of protease inhibitor (Roche Diagnostics)). The cells are homogenized with Polytron for 1 min and sonicated on ice for 2×2 minutes at 80% intensity (Vibracell sonicator). The preparation is centrifuged 20 min at 500 g at 4° C., the pellet is discarded and the supernatant centrifuged 1 hour at 43,000 g at 4° C. (19,000 rpm). The pellet is resuspended in 12.5 ml Lysis buffer+12.5 ml Sucrose 20% and homogenized using a Polytron for 1-2 min. The protein concentration is determined by the Bradford method and aliquots are stored at −80° C. until use. For binding studies 60 mg Yttrium silicate SPA beads (Amersham) are mixed with an aliquot of membrane in binding buffer (50 mM Tris, 120 mM NaCl, 5 mM KCl, 2 mM CaCl2, 10 mM MgCl2) for 15 minutes with mixing. 50 ul of bead/membrane mixture is then added to each well of a 96 well plate, followed by 50 ul of 4 nM 3H-Vasopressin (American Radiolabeled Chemicals). For total binding measurement 100 ul of binding buffer are added to the respective wells, for non-specific binding 100 ul of […] cold vasopressin and for compound testing 100 ul of a serial dilution of each compound in 2% DMSO. The plate is incubated 1 h at room temperature, centrifuged 1 min at 1000 g and counted on a Packard Top-Count. Non-specific binding counts are subtracted from each well and data is normalized to the maximum specific binding set at 100%. To calculate an IC 50 the curve is fitted using a non-linear regression model (XLfit), and the Ki is calculated using the Cheng-Prussoff equation.
# T1 sequence (P37288 whole entry): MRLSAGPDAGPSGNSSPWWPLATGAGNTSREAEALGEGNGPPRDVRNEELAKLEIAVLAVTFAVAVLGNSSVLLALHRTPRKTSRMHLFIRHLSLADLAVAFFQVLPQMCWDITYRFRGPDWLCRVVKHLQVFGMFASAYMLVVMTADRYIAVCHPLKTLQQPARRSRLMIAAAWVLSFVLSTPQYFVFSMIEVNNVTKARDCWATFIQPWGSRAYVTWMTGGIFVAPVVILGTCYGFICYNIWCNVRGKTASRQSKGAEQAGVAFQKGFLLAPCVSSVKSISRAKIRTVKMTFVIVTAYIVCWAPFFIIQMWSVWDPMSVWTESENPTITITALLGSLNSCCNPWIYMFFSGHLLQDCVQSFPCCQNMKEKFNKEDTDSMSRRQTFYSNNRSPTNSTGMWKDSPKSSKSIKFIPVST
row,Ki,Compound
1,5.7 nM,"CCN(CC)C(=O)Cn1cc(C(=O)N2CCC3(CC2)CNc2ccccc23)c2ccc(Cl)cc21 [Example 99, 2-[6-Chloro-3-(1,2-dihydro-1′H-spiro[indole-3,4′-piperidin]-1′-ylcarbonyl)-1H-indol-1-yl]-N,N-diethylacetamide]"
2,3.4 nM,"CN(C)C(=O)Cn1cc(C(=O)N2CCC3(CC2)CNc2ccccc23)c2ccc(Cl)cc21 [Example 100, 2-[6-Chloro-3-(1,2-dihydro-1′H-spiro[indole-3,4′-piperidin]-1′-ylcarbonyl)-1H-indol-1-yl]-N,N-dimethylacetamide]"
3,25.1 nM,"O=C(c1cn(Cc2cccnc2)c2cc(Cl)ccc12)N1CCC2(CC1)CNc1ccccc12 [Example 102, 1′-{[6-Chloro-1-(pyridin-3-ylmethyl)-1H-indol-3-yl]carbonyl}-1,2-dihydrospiro[indole-3,4′-piperidine]]"
4,1.3 nM,"O=C1OC2(CCN(C(=O)c3cn(CC(=O)N4CCCCC4)c4cc(Cl)ccc34)CC2)c2ccccc21 [Example 104, 1′-{[6-Chloro-1-(2-oxo-2-piperidin-1-ylethyl)-1H-indol-3-yl]carbonyl}-3H-spiro[2-benzofuran-1,4′-piperidin]-3-one]"
5,2.3 nM,"O=C1OC2(CCN(C(=O)c3cn(CC(=O)N4CCOCC4)c4cc(Cl)ccc34)CC2)c2ccccc21 [Example 105, 1′-{[6-Chloro-1-(2-morpholin-4-yl-2-oxoethyl)-1H-indol-3-yl]carbonyl}-3H-spiro[2-benzofuran-1,4′-piperidin]-3-one]"
6,0.4 nM,"CN(C)C(=O)Cn1cc(C(=O)N2CCC3(CC2)OC(=O)c2ccccc23)c2ccc(Cl)cc21 [Example 106, 2-{6-Chloro-3-[(3-oxo-1′H,3H-spiro[2-benzofuran-1,4′-piperidin]-1′-yl)carbonyl]-1H-indol-1-yl}-N,N-dimethylacetamide]"
7,1.3 nM,"CCN(CC)C(=O)Cn1cc(C(=O)N2CCC3(CC2)OC(=O)c2ccccc23)c2ccc(Cl)cc21 [Example 107, 2-{6-Chloro-3-[(3-oxo-1′H,3H-spiro[2-benzofuran-1,4′-piperidin]-1′-yl)carbonyl]-1H-indol-1-yl}-N,N-diethylacetamide]"
8,6.2 nM,"O=C1OC2(CCN(C(=O)c3cn(C(=O)N4CCCCC4)c4cc(Cl)ccc34)CC2)c2ccccc21 [Example 108, 1′-{[6-Chloro-1-(piperidin-1-ylcarbonyl)-1H-indol-3-yl]carbonyl}-3H-spiro[2-benzofuran-1,4′-piperidin]-3-one]"
9,1.1 nM,"CC(C)(C)OC(=O)Cn1cc(C(=O)N2CCC3(CC2)OC(=O)c2ccccc23)c2ccc(Cl)cc21 [Example 109, tert-Butyl {6-chloro-3-[(3-oxo-1′H,3H-spiro[2-benzofuran-1,4′-piperidin]-1′-yl)carbonyl]-1H-indol-1-yl}acetate]"
10,0.8 nM,"CN(C)C(=O)Cn1cc(C(=O)N2CCC3(CC2)OC(=O)c2cc(F)ccc23)c2ccc(Cl)cc21 [Example 110, 2-{6-Chloro-3-[(5-fluoro-3-oxo-1′H,3H-spiro[2-benzofuran-1,4′-piperidin]-1′-yl)carbonyl]-1H-indol-1-yl}-N,N-dimethylacetamide]"
11,2.4 nM,"CN(C)CCn1cc(C(=O)N2CCC3(CC2)OC(=O)c2cc(F)ccc23)c2ccc(Cl)cc21 [Example 111, 1′-({6-Chloro-1-[2-(dimethylamino)ethyl]-1H-indol-3-yl}carbonyl)-5-fluoro-3H-spiro[2-benzofuran-1,4′-piperidin]-3-one]"

row,Compound,Ki
1,O=C(c1cn(Cc2cccc(F)c2)c2cc(Cl)ccc12)N1CCC2(CC1)CNc1ccccc12 [Example 94],4.1 nM
2,"O=C(Cn1cc(C(=O)N2CCC3(CC2)CNc2ccccc23)c2ccc(Cl)cc21)c1ccccn1 [Example 101, 2-[6-Chloro-3-(1,2-dihydro-1′H-spiro[indole-3,4′-piperidin]-1′-ylcarbonyl)-1H-indol-1-yl]-1-pyridin-2-ylethanone]",27.9 nM
